Measurements as given in PubChem BioAssay AID1963962 (Molecular Pharmacology Branch, DTP, NCI, 2024).

Test system: 967376-340-R-J2-PDC multicell spheroid viability
Assay: Anticancer human tumor 967376-340-R-J2-PDC patient-derived colon adenocarcinoma cell line growth inhibition [PI3K]
Details: for IC50: curve of first compound; for viability, T/C: stronger effect = lower value
Outline: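 Tumor cells grown as multi-cell spheroids with HUVEC endothelial cells and MSC fibroblast-like stroma were treated with targeted agents combined with inavolisib, alpelisib, duvelisib or copanlisib. Doses fell in half-log steps from near clinical Cmax, else from 10 microM. Viability was measured.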

[1] = second compound 0.00316 µM, first compound 0.0316 µM
[2] = second compound 0.00316 µM, first compound 0.1 µM
[3] = second compound 0.00316 µM, first compound 0.316 µM
[4] = second compound 0.00316 µM, first compound 1 µM
[5] = second compound 0.01 µM, first compound 0.0316 µM
[6] = second compound 0.01 µM, first compound 0.1 µM
[7] = second compound 0.01 µM, first compound 0.316 µM
[8] = second compound 0.01 µM, first compound 1 µM
[9] = second compound 0.0316 µM, first compound 0.0316 µM
[10] = second compound 0.0316 µM, first compound 0.1 µM
[11] = second compound 0.0316 µM, first compound 0.316 µM
[12] = second compound 0.0316 µM, first compound 1 µM
[13] = second compound 0.1 µM, first compound 0.0316 µM
[14] = second compound 0.1 µM, first compound 0.1 µM
[15] = second compound 0.1 µM, first compound 0.316 µM
[16] = second compound 0.1 µM, first compound 1 µM
[17] = second compound 0.316 µM, first compound 0.0316 µM
[18] = second compound 0.316 µM, first compound 0.1 µM
[19] = second compound 0.316 µM, first compound 0.316 µM
[20] = second compound 0.316 µM, first compound 1 µM
[21] = second compound 1 µM, first compound 0.0316 µM
[22] = second compound 1 µM, first compound 0.1 µM
[23] = second compound 1 µM, first compound 0.316 µM
[24] = second compound 1 µM, first compound 1 µM
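Note: spheroids exposed to agents for 7 days before read-out.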
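Throughout, for viability, T/C: luminescence used as surrogate of cell viability.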

`CC(C)NCC(C(=O)N1CCN(c2ncnc3c2C(C)CC3O)CC1)c1ccc(Cl)cc1` (centres undefined) + COc1c(OCCCN2CCOCC2)ccc2c3n(c(=NC(=O)c4cnc(N)nc4)nc12)CCN3 was tested, and the IC50 (second compound 0.00316 µM) was > 10 µM, the IC50 (second compound 0.01 µM) was > 10 µM and the IC50 (second compound 0.0316 µM) was > 10 µM. For the same compound, the IC50 (second compound 0.1 µM) was > 10 µM, the IC50 (second compound 0.316 µM) was < 0.0316 µM and the IC50 (second compound 1 µM) was < 0.0316 µM. The viability, T/C [1] was 79.8%, the viability, T/C [2] was 100% and the viability, T/C [3] was 78.2%. It also gave a viability, T/C [4] of 83.5%, a viability, T/C (second compound 0.00316 µM, first compound 3.16 µM) of 73% and a viability, T/C (second compound 0.00316 µM, first compound 10 µM) of 85.4%. It also gave a viability, T/C [5] of 90.9%, a viability, T/C [6] of 75.4% and a viability, T/C [7] of 102%. The viability, T/C [8] was 66.9%, the viability, T/C (second compound 0.01 µM, first compound 3.16 µM) was 76% and the viability, T/C (second compound 0.01 µM, first compound 10 µM) was 75.5%. It also gave a viability, T/C [9] of 78.8%, a viability, T/C [10] of 61.5% and a viability, T/C [11] of 62.5%. It also gave a viability, T/C [12] of 66.7%, a viability, T/C (second compound 0.0316 µM, first compound 3.16 µM) of 82.9% and a viability, T/C (second compound 0.0316 µM, first compound 10 µM) of 66.4%. The viability, T/C [13] was 53.7%, the viability, T/C [14] was 54.1% and the viability, T/C [15] was 74.5%. The viability, T/C [16] was 49%, the viability, T/C (second compound 0.1 µM, first compound 3.16 µM) was 57.9% and the viability, T/C (second compound 0.1 µM, first compound 10 µM) was 47.5%. It also gave a viability, T/C [17] of 38.4%, a viability, T/C [18] of 35.5% and a viability, T/C [19] of 57.1%. The viability, T/C [20] was 33.9%, the viability, T/C (second compound 0.316 µM, first compound 3.16 µM) was 52.5% and the viability, T/C (second compound 0.316 µM, first compound 10 µM) was 49.4%. For the same compound, the viability, T/C [21] was 48.4%, the viability, T/C [22] was 25.3% and the viability, T/C [23] was 37.2%. For the same compound, the viability, T/C [24] was 26.1%, the viability, T/C (second compound 1 µM, first compound 3.16 µM) was 47.6% and the viability, T/C (second compound 1 µM, first compound 10 µM) was 48.7%.

For `CCN1CCN(Cc2ccc(Nc3ncc(F)c(-c4cc(F)c5nc(C)n(C(C)C)c5c4)n3)nc2)CC1` + COc1c(OCCCN2CCOCC2)ccc2c3n(c(=NC(=O)c4cnc(N)nc4)nc12)CCN3, the IC50 (second compound 0.00316 µM) was > 1 µM, the IC50 (second compound 0.01 µM) was > 1 µM and the IC50 (second compound 0.0316 µM) was 0.769 µM. For the same compound, the IC50 (second compound 0.1 µM) was 0.025 µM, the IC50 (second compound 0.316 µM) was < 0.00316 µM and the IC50 (second compound 1 µM) was < 0.00316 µM. It also gave a viability, T/C (second compound 0.00316 µM, first compound 0.00316 µM) of 85.1%, a viability, T/C (second compound 0.00316 µM, first compound 0.01 µM) of 95.7% and a viability, T/C [1] of 87.6%. The viability, T/C [2] was 83.5%, the viability, T/C [3] was 79.7% and the viability, T/C [4] was 70.8%. For the same compound, the viability, T/C (second compound 0.01 µM, first compound 0.00316 µM) was 85.3%, the viability, T/C (second compound 0.01 µM, first compound 0.01 µM) was 77.9% and the viability, T/C [5] was 62.4%. The viability, T/C [6] was 71.1%, the viability, T/C [7] was 73.2% and the viability, T/C [8] was 60.6%. For the same compound, the viability, T/C (second compound 0.0316 µM, first compound 0.00316 µM) was 68.6%, the viability, T/C (second compound 0.0316 µM, first compound 0.01 µM) was 68.4% and the viability, T/C [9] was 71.4%. For the same compound, the viability, T/C [10] was 52.3%, the viability, T/C [11] was 63.6% and the viability, T/C [12] was 46.5%. The viability, T/C (second compound 0.1 µM, first compound 0.00316 µM) was 66%, the viability, T/C (second compound 0.1 µM, first compound 0.01 µM) was 57.6% and the viability, T/C [13] was 48.2%. The viability, T/C [14] was 40.1%, the viability, T/C [15] was 39.2% and the viability, T/C [16] was 34.9%. The viability, T/C (second compound 0.316 µM, first compound 0.00316 µM) was 53.2%, the viability, T/C (second compound 0.316 µM, first compound 0.01 µM) was 34.8% and the viability, T/C [17] was 43.4%. The viability, T/C [18] was 43.3%, the viability, T/C [19] was 42.4% and the viability, T/C [20] was 29.6%. It also gave a viability, T/C (second compound 1 µM, first compound 0.00316 µM) of 42.2%, a viability, T/C (second compound 1 µM, first compound 0.01 µM) of 35.5% and a viability, T/C [21] of 38.4%. The viability, T/C [22] was 22.8%, the viability, T/C [23] was 28.4% and the viability, T/C [24] was 30.3%.
